Data from PubChem BioAssay (NCI).
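Dose response: 5 concentrations. Exposure: 48 h. Format: 96-well plates. Endpoint: linear interpolation; highest concentration if not reached. TGI is the concentration that stops growth completely.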

Tests used:
Assay in all cases: NCI tumour cell line growth inhibition, 48 h
[1] = tested on: TK-10 renal
[2] = tested on: KM12 colon
[3] = tested on: M14 melanoma
[4] = tested on: A498 renal
[5] = tested on: SNB-75 CNS
[6] = tested on: IGROV1 ovarian
[7] = tested on: RXF 393 renal
[8] = tested on: A549 NSCLC
[9] = tested on: DMS 114 small cell lung
[10] = tested on: HOP-62 NSCLC
[11] = tested on: DLD-1 colon
[12] = tested on: SNB-78 CNS
[13] = tested on: K-562 leukemia
[14] = tested on: LOX IMVI melanoma
[15] = tested on: SF-295 CNS
[16] = tested on: SF-268 CNS
[17] = tested on: SN12C renal
[18] = tested on: CCRF-CEM leukemia
[19] = tested on: SF-539 CNS
[20] = tested on: HT29 colon
[21] = tested on: SK-MEL-2 melanoma
[22] = tested on: NCI-H226 lung
[23] = tested on: CAKI-1 renal
[24] = tested on: OVCAR-3 ovarian
[25] = tested on: RPMI-8226 leukemia
[26] = tested on: MOLT-4 leukemia
[27] = tested on: XF 498 CNS
[28] = tested on: SK-OV-3 ovarian
[29] = tested on: COLO 205 colon
[30] = tested on: UO-31 renal
[31] = tested on: SK-MEL-5 melanoma
[32] = tested on: UACC-257 melanoma
[33] = tested on: M19-MEL melanoma
[34] = tested on: UACC-62 melanoma
[35] = tested on: NCI-H522 lung
[36] = tested on: NCI-H460 lung
[37] = tested on: U251 CNS
[38] = tested on: MALME-3M melanoma
[39] = tested on: OVCAR-8 ovarian
[40] = tested on: HCT-116 colon
[41] = tested on: SW-620 colon
[42] = tested on: DMS 273 small cell lung
[43] = tested on: HCC-2998 colon
[44] = tested on: ACHN renal
[45] = tested on: OVCAR-5 ovarian
[46] = tested on: HCT-15 colon
[47] = tested on: KM20L2 colon
[48] = tested on: LXFL 529 NSCLC
[49] = tested on: 786-0 renal
[50] = tested on: EKVX NSCLC
[51] = tested on: NCI-H23 lung
[52] = tested on: HOP-18 NSCLC
[53] = tested on: OVCAR-4 ovarian
[54] = tested on: HL-60(TB) leukemia
[55] = tested on: SK-MEL-28 melanoma
[56] = tested on: SNB-19 CNS

Measured: TGI

CCOC(=O)CNc1nnnn1C1OC(CO)C(O)C1O (centres undefined)
> 100 µM: [1] | [2] | [3] | [4] | [5] | [6] | [7] | [8] | [9] | [10] | [11] | [12] | [13] | [14] | [15] | [16] | [17] | [18] | [19] | [20] | [21] | [22] | [23] | [24] | [25] | [26] | [27] | [28] | [29] | [30] | [31] | [32] | [33] | [34] | [35] | [36] | [37] | [38] | [39] | [40] | [41] | [42] | [43] | [44] | [45] | [46] | [47] | [48] | [49] | [50]

CC(=O)O[C@H]1CC2C=CC3C(CCC31)O2 (some centres undefined)
> 100 µM: [1] | [3] | [5] | [6] | [7] | [51] | [8] | [9] | [10] | [11] | [12] | [13] | [14] | [52] | [16] | [17] | [18] | [20] | [23] | [24] | [26] | [27] | [28] | [53] | [29] | [30] | [33] | [34] | [36] | [37] | [38] | [39] | [41] | [42] | [43] | [44] | [46] | [54] | [55] | [47] | [48] | [56] | [49] | [50]
